In patent US11999727B2 (Tango Therapeutics, Inc., priority 2020, dated 2024):

Legend:
PRMT5 [1] = target: T1, PRMT5 (Homo sapiens, UniProt O14744); experiment: PRMT5 biochemical IC50 assay with no cofactor; details: PRMT5, no cofactor
T1 construct: purchased Viva (custom protein)
Text: Table 1 indicates IC50 values (μM) against PRMT5 for exemplary compounds in the presence of SAM as cofactor, with no cofactor, and with MTA as cofactor, respectively (columns 4-6). […] Ki values can be calculated from the IC50 values as described in the Examples section. As detailed in the Examples section, for the assay performed in the presence of SAM, IC50=Ki×1.5 (Ki=IC50/1.5).

[2] = system: HAP1 MTAP-deleted cell line; experiment: Viability assay, MTAP-deleted cell line; format: cell-based; details: Homo sapiens, HAP1, viability assay, MTAP-deleted cell line; read-out: HAP1 MTAP deleted viability
Text: Table 1 additionally indicates IC50 values in a viability assay for the MTAP-deleted cell line (column 10), indicating the effect of treatment with compound on cell survival.

[3] = system: HAP1 MTAP-deleted cell line; experiment: SDMA in-cell western assay, HAP1 MTAP-deleted; format: cell-based; details: for IC50: Homo sapiens, HAP1, SDMA in-cell western, HAP1 MTAP-deleted; for MTAP intact/deleted ratio: IC50 ratio HAP1 MTAP-intact / HAP1 MTAP-deleted, SDMA in-cell western
Procedure, shortened: (§1)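 Compounds were tested in HAP1 cells differing only in MTAP status (endogenous expression versus null). Cellular SDMA levels were then measured by in-cell western, giving an IC50 in each background.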

PRMT5 [4] = target: T1, PRMT5; experiment: PRMT5 biochemical IC50 assay with SAM as cofactor; details: PRMT5, SAM as cofactor; read-out: SAM IC50
[5] = system: HAP1 MTAP-intact cell line; experiment: SDMA in-cell western assay, HAP1 MTAP-intact; format: cell-based; details: Homo sapiens, HAP1, SDMA in-cell western, HAP1 MTAP-intact; read-out: MTAP HAP1 intact IC50
Procedure, shortened: as §1

PRMT5 [6] = target: T1, PRMT5; experiment: PRMT5 biochemical IC50 assay with MTA as cofactor; details: PRMT5, MTA as cofactor; read-out: MTA IC50
[7] = read-out: No Cofactor/ rel IC50
[8] = read-out: HAP 1 MTAP deleted IC50
[9] = read-out: HAP1 MTAP deleted IC50

T1 sequence (O14744 whole entry): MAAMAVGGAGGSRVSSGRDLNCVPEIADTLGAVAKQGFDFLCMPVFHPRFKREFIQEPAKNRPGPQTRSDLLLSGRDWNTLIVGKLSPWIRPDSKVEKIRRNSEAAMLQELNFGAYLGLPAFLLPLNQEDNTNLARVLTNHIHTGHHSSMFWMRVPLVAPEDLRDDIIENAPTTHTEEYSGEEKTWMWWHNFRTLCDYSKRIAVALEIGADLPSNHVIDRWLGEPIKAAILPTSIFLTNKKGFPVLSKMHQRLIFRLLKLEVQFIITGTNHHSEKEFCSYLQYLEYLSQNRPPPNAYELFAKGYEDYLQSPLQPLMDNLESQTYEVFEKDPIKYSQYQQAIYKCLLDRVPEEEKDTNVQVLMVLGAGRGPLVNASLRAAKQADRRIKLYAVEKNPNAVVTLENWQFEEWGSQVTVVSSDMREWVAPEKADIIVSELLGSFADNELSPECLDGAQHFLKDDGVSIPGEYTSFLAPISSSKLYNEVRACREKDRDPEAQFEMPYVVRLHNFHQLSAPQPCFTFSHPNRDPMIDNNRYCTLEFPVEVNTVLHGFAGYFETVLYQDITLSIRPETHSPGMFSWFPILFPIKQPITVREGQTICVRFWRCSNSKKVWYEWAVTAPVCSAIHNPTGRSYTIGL
T1 sequence (Q9BQA1 whole entry partner): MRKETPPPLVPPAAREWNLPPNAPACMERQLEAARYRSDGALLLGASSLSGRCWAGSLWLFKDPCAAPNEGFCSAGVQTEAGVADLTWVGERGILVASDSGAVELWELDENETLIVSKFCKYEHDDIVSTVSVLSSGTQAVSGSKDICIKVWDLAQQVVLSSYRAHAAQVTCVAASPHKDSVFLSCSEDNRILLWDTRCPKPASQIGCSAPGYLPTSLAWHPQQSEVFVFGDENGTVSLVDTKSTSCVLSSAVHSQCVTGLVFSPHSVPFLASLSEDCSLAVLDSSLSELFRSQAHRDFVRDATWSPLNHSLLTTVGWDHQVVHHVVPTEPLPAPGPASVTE

IC50 (PRMT5 [1]; [7]) [nM] | IC50 [3, 8] [nM] | IC50 (PRMT5 [4]) [nM] | IC50 [5] [nM] | IC50 (PRMT5 [6]) [nM] | IC50 (PRMT5 [1]; read-out: No Cofactor/rel IC50) [nM] | IC50 [3, 9] [nM] | SMILES | IC50 [2] [nM] | MTAP intact/deleted ratio [3]
50 to 500 | 100 to 1000 | 50 to 500 | > 1000 | 50 to 500 | – | – | Cc1cc(NC(=O)C(=O)N2C[C@H](C)CC[C@H]2C2CCCC(C)(C)C2)cnc1N (mixture of isomers) [Compound 150, N-(6-amino-5-methyl-3-pyridyl)-2-[(2S,5R)-2-(3,3-dimethylcyclohexyl)-5-methyl-1-piperidyl]-2-oxo-acetamide] | 1000 to 10000 | C (an IC50 ratio of less than 3 fold)
50 to 500 | < 100 | 50 to 500 | > 1000 | < 50 | – | – | CC1Cc2cc([C@@H]3CC[C@@H](C)CN3C(=O)C(=O)Nc3cncc(C(N)=O)c3)ccc2O1 (mixture of isomers) [Compound 151, rac-5-{2-[(2R,5S)-5-Methyl-2-(2-methyl-2,3-dihydro-1-benzofuran-5-yl)piperidin-1-yl]-2-oxoacetamido}pyridine-3-carboxamide] | 1000 to 10000 | A (an IC50 ratio greater than or equal to 10 fold)
50 to 500 | < 100 | 50 to 500 | > 1000 | 50 to 500 | – | – | Cc1cc(C)n(-c2cccc([C@@H]3CC[C@@H](C)CN3C(=O)C(=O)Nc3cncc(C(N)=O)c3)c2)n1 (racemic) [Compound 153, rac-5-{2-[(2R,5S)-2-[3-(3,5-Dimethyl-1H-pyrazol-1-yl)phenyl]-5-methylpiperidin-1-yl]-2-oxoacetamido}pyridine-3-carboxamide] | 1000 to 10000 | A (an IC50 ratio greater than or equal to 10 fold)
50 to 500 | > 1000 | 50 to 500 | > 1000 | < 50 | – | – | C[C@@H]1CC[C@@H](c2ccccc2)N(C(=O)C(=O)Nc2cncc(C(N)=O)c2)[C@@H]1C (racemic) [Compound 154, rac-5-[[2-[(2R,3R,6S)-2,3-dimethyl-6-phenyl-1-piperidyl]-2-oxo-acetyl]amino]pyridine-3-carboxamide] | > 10000 | B (an IC50 ratio greater than or equal to 3 fold but lower than 10 fold)
50 to 500 | 100 to 1000 | 50 to 500 | > 1000 | < 50 | – | – | C[C@@H]1CC[C@@H](C2CCC2)N(C(=O)C(=O)Nc2cncc(C(N)=O)c2)C1 (racemic) [Compound 155, 5-[[2-[(2R,5S)-2-cyclobutyl-5-methyl-1-piperidyl]-2-oxo-acetyl]amino]pyridine-3-carboxamide] | > 10000 | A (an IC50 ratio greater than or equal to 10 fold)
50 to 500 | > 1000 | 50 to 500 | > 1000 | 50 to 500 | – | – | Cc1cc(C)n(-c2ccc([C@@H]3CC[C@@H](C)CN3C(=O)C(=O)Nc3cncc(C(N)=O)c3)cc2)n1 (racemic) [Compound 157, rac-5-{2-[(2R,5S)-2-[4-(3,5-Dimethyl-1H-pyrazol-1-yl)phenyl]-5-methylpiperidin-1-yl]-2-oxoacetamido}pyridine-3-carboxamide] | > 10000 | B (an IC50 ratio greater than or equal to 3 fold but lower than 10 fold)
50 to 500 | > 1000 | 50 to 500 | > 1000 | 50 to 500 | – | – | Cc1cc(NC(=O)C(=O)N2C[C@H](C)CC[C@H]2C)cnc1N (racemic) [Compound 158, N-(6-amino-5-methyl-3-pyridyl)-2-[(2R,5R)-2,5-dimethyl-1-piperidyl]-2-oxo-acetamide] | > 10000 | C (an IC50 ratio of less than 3 fold)
50 to 500 | < 100 | 50 to 500 | > 1000 | < 50 | – | – | Cc1ccc([C@@H]2CC[C@@H](C)CN2C(=O)C(=O)Nc2cncc(C(N)=O)c2)cc1F (racemic) [Compound 162, rac-5-{2-[(2R,5S)-2-(3-Fluoro-4-methylphenyl)-5-methylpiperidin-1-yl]-2-oxoacetamido}pyridine-3-carboxamide] | 1000 to 10000 | A (an IC50 ratio greater than or equal to 10 fold)
50 to 500 | 100 to 1000 | 50 to 500 | > 1000 | < 50 | – | – | C[C@@H]1CC[C@H](c2ccccc2)N(C(=O)C(=O)Nc2cncc(C(N)=O)c2)[C@@H]1C (racemic) [Compound 163, rac-5-[[2-[(2R,3R,6R)-2,3-dimethyl-6-phenyl-1-piperidyl]-2-oxo-acetyl]amino]pyridine-3-carboxamide] | > 10000 | A (an IC50 ratio greater than or equal to 10 fold)
50 to 500 | 100 to 1000 | 50 to 500 | > 1000 | < 50 | – | – | Cc1cc(NC(=O)C(=O)N2C[C@H](C)CC[C@H]2C(C)C)cnc1N (racemic) [Compound 165, N-(6-amino-5-methyl-3-pyridyl)-2-[(2S,5R)-2-isopropyl-5-methyl-1-piperidyl]-2-oxo-acetamide] | > 10000 | A (an IC50 ratio greater than or equal to 10 fold)
50 to 500 | 100 to 1000 | 50 to 500 | > 1000 | < 50 | – | – | Cc1ccc2cc([C@@H]3CC[C@@H](C)CN3C(=O)C(=O)Nc3cncc(C(N)=O)c3)ccc2n1 (racemic) [Compound 167, rac-5-{2-[(2R,5S)-5-Methyl-2-(2-methylquinolin-6-yl)piperidin-1-yl]-2-oxoacetamido}pyridine-3-carboxamide] | 1000 to 10000 | A (an IC50 ratio greater than or equal to 10 fold)
50 to 500 | > 1000 | 50 to 500 | > 1000 | 50 to 500 | – | – | Cc1cc(NC(=O)C(=O)N2C[C@H](C)CC[C@@H]2C)cnc1N (racemic) [Compound 168, N-(6-amino-5-methyl-3-pyridyl)-2-[(2S,5R)-2,5-dimethyl-1-piperidyl]-2-oxo-acetamide] | > 10000 | C (an IC50 ratio of less than 3 fold)
50 to 500 | < 100 | 50 to 500 | > 1000 | < 50 | – | – | Cc1cc([C@@H]2CC[C@@H](C)CN2C(=O)C(=O)Nc2cncc(C(N)=O)c2)ccc1OC1CCOC1 (mixture of isomers) [Compound 171, rac-5-{2-[(2R,5S)-5-Methyl-2-[3-methyl-4-(oxolan-3-yloxy)phenyl]piperidin-1-yl]-2-oxoacetamido}pyridine-3-carboxamide] | 1000 to 10000 | A (an IC50 ratio greater than or equal to 10 fold)
50 to 500 | 100 to 1000 | 50 to 500 | > 1000 | < 50 | – | – | C[C@@H]1CC[C@@H](C2CCCC2)N(C(=O)C(=O)Nc2cncc(C(N)=O)c2)C1 (racemic) [Compound 172, 5-(2-(2-cyclopentyl-5-methylpiperidin-1-yl)-2-oxoacetamido)nicotinamide] | > 10000 | A (an IC50 ratio greater than or equal to 10 fold)
50 to 500 | < 100 | 50 to 500 | > 1000 | < 50 | – | – | Cc1cc([C@@H]2CC[C@@H](C)CN2C(=O)C(=O)Nc2cncc(C(N)=O)c2)ccc1Cl (racemic) [Compound 173, rac-5-{2-[(2R,5S)-2-(4-Chloro-3-methylphenyl)-5-methylpiperidin-1-yl]-2-oxoacetamido}pyridine-3-carboxamide] | 1000 to 10000 | A (an IC50 ratio greater than or equal to 10 fold)
– | – | 50 to 500 | > 1000 | < 50 | 50 to 500 | < 100 | C[C@@H]1CC[C@@H](c2cccc(Cl)c2)N(C(=O)C(=O)Nc2cncc(C(N)=O)c2)C1 (racemic) [Compound 174, rac-5-{2-[(2R,5S)-2-(3-Chlorophenyl)-5-methylpiperidin-1-yl]-2-oxoacetamido}pyridine-3-carboxamide] | 1000 to 10000 | A (an IC50 ratio greater than or equal to 10 fold)
– | – | > 500 | > 1000 | 50 to 500 | > 500 | > 1000 | Cc1cc(NC(=O)C(=O)N2C[C@H](C)CC[C@@H]2C2CCCCC2)cnc1N (racemic) [Compound 175, N-(6-amino-5-methyl-3-pyridyl)-2-[(2R,5R)-2-cyclohexyl-5-methyl-1-piperidyl]-2-oxo-acetamide] | > 10000 | B (an IC50 ratio greater than or equal to 3 fold but lower than 10 fold)
